{"source": "patent US20230078511A1", "about": "“METHODS OF USING MOMELOTINIB TO TREAT JOINT INFLAMMATION” (Sierra Oncology, Inc., priority 2020, published 2023)", "key": {"[1]": {"tested_on": "PG-PS-immunized rats", "test": "PG-PS induced rat model of chronic arthritis (Example 1)", "type": "in vivo, Lewis rats", "experimental": "Six-week old female Lewis rats are immunized with 15 mg/kg Streptococcal Peptidoglycan-Polysaccharide (PG-PS) administered intraperitoneally (IP). Treatments with anti-inflammatory drugs of interest are commenced two weeks later and continue for 7 days (short-term) to 21 days (long-term). Disease progression is monitored as described below (see Joint Pathology, Clinical Scoring and Bio-Imaging). Blood samples are collected once weekly and processed as described below. At the conclusion of experiments, blood, serum, and organ samples are collected and processed as described herein.\nSpleen and lymph node cells are isolated by mechanical pressing of the organ through a 100 µm cell strainer (Corning) in PBS. For isolation of rat synovial infiltrates, hind limbs are freed of skin, bones, and major tendons. The remaining tissue is minced and digested with 0.16 U Liberase TM, 10 µg/mL DNase I, and 60 U hyaluronidase I in RPMI at 37° C. for 1 hour. Blood is collected into heparinized tubes and used directly for blood count determination. For immunophenotyping of blood leukocytes, blood samples are depleted from red blood cells by lysis with ACK buffer (150 mM NH4Cl, 10 mM KHCO3, 0.1 mM EDTA).\nFlow cytometry staining is performed as described in Parajuli et al., Int. J. Cancer 126:896-908, 2010, which is hereby incorporated by reference in its entirety. Measurements are performed with a Cytoflex S device (Beckman Coulter) and FACS Symphony (Beckton Dickinson), enabling detection of 13 and 52 fluorescence parameters, respectively, as well as automated absolute cell count determination.\nFor intracellular cytokine/transcription factor staining, rat and murine T cells are re-stimulated for 4 hours with phorbol 12,13-dibutyrate (PDBu) and ionomycin (50 ng/mL and 500 ng/mL, respectively) in the presence of Golgi Stop (BD Bioscience). In sum, five multicolor antibody panels per species (rat, mouse) are established (blood leukocytes, organ leukocytes, intracellular staining for Th cell subtypes, blood reticulocytes, bone marrow erythropoiesis). Data analysis is performed using FlowJo Software.\n(§1) Regular monitoring of arthritis progression in all animal models is accomplished by measuring hind limb ankle joint diameters with a Vernier’s caliper (volume = D × d^2Π/6, D and d are ankle diameters measured in perpendicular axes, D > d). In murine arthritis models, animals are additionally clinically scored with a system assessing swelling and mobility of each animal’s limb, as described in Inglis et al., Arthritis Res. Ther. 8:R113, 2007, which is hereby incorporated by reference in its entirety. Each paw of an experimental animal is assessed separately as follows: 0 - normal, 1 - slight swelling or erythrema, 2 - pronounced swelling, 3 - joint rigidity. The paw scores for each animal are summed giving a maximum of 12 points per mouse. Scoring is performed by a rater blinded to the group assignment.\nA rat model of chronic arthritis (PG-PS induced) was used to assess the efficacy of the dual JAK1/2 and ACVR1 inhibitor momelotinib (MMB) in vivo. Two weeks following arthritis induction by immunization with PG-PS, rats were treated with daily oral doses of MMB (5, 10, and 25 mg/kg) or vehicle for 3 weeks.\nConsecutive assessment of arthritis was performed by joint thickness measurements and paw scoring. Following 3 weeks of treatment, synovial immune cell infiltration and T cell subset differentiation were quantified by multi-color flow cytometry. Cytokine gene expression was profiled by Real-Time PCR. Anemia was assessed by determination of blood hemoglobin and serum, spleen and liver iron levels."}, "[2]": {"tested_on": "CAIA DBA/1 mice", "test": "Collagen antibody-induced arthritis (CAIA) in DBA/1 mice (Example 2)", "type": "in vivo", "description": "as §1, with “Vernier's” for “Vernier’s”, “animal's” for “animal’s”, “Inglis” left out, “8:[…],” for “8:R113,”, “[…],” for “erythrema,”, “assignment. In order to evaluate efficacy of MMB treatment in a second arthritic animal model, arthritis was induced in DBA/1 mice by intravenous injection of collagen antibody cocktail on day 0 followed by intraperitoneal injection of lipopolysaccharide (LPS) on day 3. […] Comparator controls dexamethasone (1 mg/kg) or the TNF-α inhibitor, etanercept (10 mg/kg) were administered daily by intraperitoneal injection beginning on day 0.” for “assignment.”"}, "[3]": {"tested_on": "PG-PS-immunized RA rats", "test": "PG-PS rat rheumatoid arthritis (RA) model, 3 or 21 days of treatment (Example 3)", "type": "in vivo, Lewis rats", "experimental": "Female Lewis rats were immunized with 15 mg/kg Streptococcal Peptidoglycan-Polysaccharide (PG-PS) administered intraperitoneally (IP) to generate a rat model of rheumatoid arthritis. Rats were used to assess the efficacy of the dual JAK1/2 and ACVR1 inhibitor momelotinib (MMB) in vivo. Two weeks following rheumatoid arthritis induction by immunization with PG-PS, rats were treated with daily oral doses of MMB (5, 10, 25 mg/kg) or vehicle for 3 or 21 days.\nStatistical significance was determined with one-way ANOVA for RA animals with Bonferroni post-hoc tests (N=5-10 per group, * p < 0.05, ** p < 0.01).\nCytokine gene expression was profiled by Real-Time PCR. For immunophenotyping of blood leukocytes and granulocyte counts were obtained. Anemia was assessed by determination of blood hemoglobin and serum, spleen and liver iron levels."}, "[4]": {"tested_on": "CAIA BALB/C mice", "test": "CAIA murine rheumatoid arthritis model in BALB/C mice (Example 4)", "type": "in vivo", "settings": "for mean rear paw rheumatoid arthritis score / mean rear paw thickness / mean total animal rheumatoid arthritis score: beginning on day 6, vs vehicle, MMB 50 mg/kg daily or 30 mg/kg twice daily oral, etanercept 10 mg/kg daily IP", "experimental": "BALB/C mice were immunized with 2 mg anti-collagen II antibodies administered intraperitoneally (IP) on day 0 followed by intraperitoneal injection of 100 µg of lipopolysaccharide (LPS) on day 3. Beginning at RA induction, mice were treated orally for the entirety of the study either once daily vehicle, MMB (50 mg/kg), twice daily with MMB (30 mg/kg), or daily intraperitoneally, etanercept (ETA) (10 mg/kg). Consecutive assessment of rheumatoid arthritis was performed by animal and rear paw scoring, and rear paw thickness measurements."}, "[5]": {"target": "T1, Activin Receptor Type 1 (ACVR1) (Homo sapiens, UniProt Q04771)", "T1 sequence (Q04771 21-509)": "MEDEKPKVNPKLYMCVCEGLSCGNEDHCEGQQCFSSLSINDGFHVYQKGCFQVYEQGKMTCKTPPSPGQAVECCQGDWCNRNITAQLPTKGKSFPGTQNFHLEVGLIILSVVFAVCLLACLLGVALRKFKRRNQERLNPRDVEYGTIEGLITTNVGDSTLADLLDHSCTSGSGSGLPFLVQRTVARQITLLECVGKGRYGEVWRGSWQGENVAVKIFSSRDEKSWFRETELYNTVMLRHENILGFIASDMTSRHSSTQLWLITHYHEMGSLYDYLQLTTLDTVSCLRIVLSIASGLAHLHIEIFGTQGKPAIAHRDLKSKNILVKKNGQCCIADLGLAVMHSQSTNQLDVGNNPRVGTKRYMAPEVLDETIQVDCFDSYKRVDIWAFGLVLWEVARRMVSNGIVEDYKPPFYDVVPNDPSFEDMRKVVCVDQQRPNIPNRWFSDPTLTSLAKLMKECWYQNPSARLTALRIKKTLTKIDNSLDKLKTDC", "settings": "background statement; cited from earlier work"}, "[6]": {"tested_on": "rat model", "settings": "background statement; cited from earlier work"}, "[7]": {"tested_on": "myelofibrosis patients", "settings": "myelofibrosis patients treated with MMB; background statement; cited from earlier work"}, "[8]": {"settings": "all tested doses (5, 10, 25 mg/kg), vs vehicle in PG-PS animals"}, "[9]": {"settings": "beginning at the lowest tested dose (5 mg/kg)"}, "[10]": {"settings": "daily oral, 3 weeks, flow cytometry"}, "[11]": {"settings": "daily oral, 3 weeks, hind limb ankle joints, flow cytometry"}, "[12]": {"settings": "beginning on day 5, vs vehicle, MMB 50 mg/kg daily or 30 mg/kg twice daily oral, etanercept 10 mg/kg daily IP"}, "[13]": {"settings": "21 days of treatment, compared to healthy and RA rats"}, "[14]": {"settings": "21 days of treatment, flow cytometry"}}, "data": [{"compound": "N#CCNC(=O)c1ccc(-c2ccnc(Nc3ccc(N4CCOCC4)cc3)n2)cc1", "note": "[MMB, N-(cyanomethyl)-4-(2-(4-morpholinophenylamino)pyrimidin-4-yl)benzamide]", "values": [{"measurement": "joint swelling", "setting": "[1]; 25 mg/kg", "result": "complete remission"}, {"measurement": "splenic granulocytes (percentage of splenic CD45+ leukocytes)", "setting": "[1]; 25 mg/kg for 3 weeks, flow cytometry", "result": "significant reduction"}, {"measurement": "mean sum diameter of hind limb joints", "setting": "[1]; 10 and 25 mg/kg daily oral, 3 weeks, caliper on last day of treatment, vs vehicle", "result": "significant reduction"}, {"measurement": "reduction of inflammatory granulocyte infiltration in synovial tissue", "setting": "[1]; [8]", "result": "more than 60%"}, {"measurement": "reduction of macrophage infiltration in synovial tissue", "setting": "[1]; [8]", "result": "more than 60%"}, {"measurement": "arthritogenic Th17 cell differentiation", "setting": "[1]; [9]", "result": "effectively decreased"}, {"measurement": "overall CD4+ T cells in the synovia", "setting": "[1]; [9]", "result": "effectively decreased"}, {"measurement": "swelling and cartilage destruction in arthritic hind limb joints", "setting": "[1]; daily oral, 3 weeks, H&E sections at 10 mg/kg", "result": "substantially inhibits"}, {"measurement": "granulocytes in synovial tissue of hind limb ankle joint pairs", "setting": "[1]; [10]", "result": "significantly reduced"}, {"measurement": "inflammatory CD11b/c+ macrophages in synovial tissue", "setting": "[1]; [10]", "result": "significantly reduced"}, {"measurement": "monocytes in synovial tissue", "setting": "[1]; [10]", "result": "significantly reduced"}, {"measurement": "splenic Th1 cells", "setting": "[1]; [10]", "result": "reduced"}, {"measurement": "splenic Th17 cells", "setting": "[1]; [10]", "result": "significant reduction"}, {"measurement": "splenic Treg cells", "setting": "[1]; [10]", "result": "not significantly altered"}, {"measurement": "synovial CD4+ T cells", "setting": "[1]; [11]", "result": "significant reductions"}, {"measurement": "synovial CD8+ T cells", "setting": "[1]; [11]", "result": "significant reductions"}, {"measurement": "CD4+ T cells in the arthritic ankle synovia", "setting": "[1]; lowest dose tested, 5 mg/kg", "result": "Reduction"}, {"measurement": "RA-associated anemia", "setting": "[1]; rats", "result": "substantial improvement"}, {"measurement": "circulating hepcidin levels", "setting": "[1]; rats", "result": "reduced"}, {"measurement": "systemic iron", "setting": "[1]; rats", "result": "mobilized"}, {"measurement": "mean rear paw thickness", "setting": "[2]; 20 mg/kg daily oral, days 7 and 12, vs vehicle", "result": "reduction"}, {"measurement": "arthritis scoring versus the TNF-α inhibitor etanercept", "setting": "[2]; CAIA model, DBA/1 mice", "result": "non-inferiority"}, {"measurement": "mean rear paw arthritis score", "setting": "[2]; [12]", "result": "significant reduction"}, {"measurement": "mean rear paw thickness", "setting": "[2]; [12]", "result": "significant reduction"}, {"measurement": "mean total arthritis score", "setting": "[2]; [12]", "result": "significant reduction"}, {"measurement": "blood granulocyte counts", "setting": "[3]; 3 days of treatment", "result": "significantly decreases"}, {"measurement": "blood leukocyte counts", "setting": "[3]; 3 days of treatment", "result": "significantly decreases"}, {"measurement": "spleen and liver cytokine expression", "setting": "[3]; 3 days of treatment, Real-Time PCR", "result": "significantly decreases"}, {"measurement": "cartilage damage", "setting": "[3]; 21 days of treatment, H&E-stained hind limb joint sections", "result": "alleviates"}, {"measurement": "anemia", "setting": "[3]; [13]", "result": "corrects"}, {"measurement": "hepcidin", "setting": "[3]; [13]", "result": "decreases"}, {"measurement": "hind limb joint swelling", "setting": "[3]; 21 days of treatment, figure shows 10 mg/kg", "result": "reduces"}, {"measurement": "CD4+ T cell infiltration in hind-limb synovial tissue", "setting": "[3]; [14]", "result": "significantly reduces"}, {"measurement": "CD8+ T cell infiltration in hind-limb synovial tissue", "setting": "[3]; [14]", "result": "significantly reduces"}, {"measurement": "differentiation of splenic Th17 cells", "setting": "[3]; [14]", "result": "inhibits"}, {"measurement": "infiltration of macrophages in hind limb synovia", "setting": "[3]; [14]", "result": "reduces"}, {"measurement": "infiltration of neutrophils in hind limb synovia", "setting": "[3]; [14]", "result": "reduces"}, {"measurement": "regulatory Treg cells", "setting": "[3]; [14]", "result": "without affecting"}, {"measurement": "splenic Th1 cells", "setting": "[3]; [14]", "result": "without affecting"}, {"measurement": "iron availability", "setting": "[3]; rat PG-PS model", "result": "improves"}, {"measurement": "rheumatoid arthritis scoring versus the TNF-α inhibitor etanercept", "setting": "[4]; CAIA model, BALB/C mice", "result": "non-inferiority"}, {"measurement": "mean rear paw rheumatoid arthritis score", "setting": "[4]", "result": "significant reduction"}, {"measurement": "mean rear paw thickness", "setting": "[4]", "result": "significant reduction"}, {"measurement": "mean total animal rheumatoid arthritis score", "setting": "[4]", "result": "significant reduction"}, {"measurement": "anti-arthritic effectiveness compared with etanercept", "setting": "[4]; murine CAIA RA model", "result": "at least equally effective"}, {"measurement": "inhibition of ACVR1", "setting": "[5]", "result": "potent inhibition"}, {"measurement": "anemia", "setting": "[6]", "result": "correct anemia"}, {"measurement": "anemia benefit", "setting": "[7]", "result": "clinically reproduced"}]}, {"compound": "etanercept [reference compound]", "values": [{"measurement": "mean rear paw arthritis score", "setting": "[2]; [12]", "result": "significant reduction"}, {"measurement": "mean rear paw thickness", "setting": "[2]; [12]", "result": "significant reduction"}, {"measurement": "mean total arthritis score", "setting": "[2]; [12]", "result": "significant reduction"}, {"measurement": "mean rear paw rheumatoid arthritis score", "setting": "[4]", "result": "significant reduction"}, {"measurement": "mean rear paw thickness", "setting": "[4]", "result": "significant reduction"}, {"measurement": "mean total animal rheumatoid arthritis score", "setting": "[4]", "result": "significant reduction"}]}]}
